In patent US20170354726A1, “CANCER PEPTIDE VACCINE” (Green Peptide Co., Ltd., priority 2010, published 2017):
Ends that are not written are not given here.

Columns and labels:
Format in all cases: in vivo, human
[1] = tested on: CTL in PBMC of HRPC patients, HLA-A24 positive target cells presenting the administered peptide; assay: Measurement of CTL activity (IFN-γ) in PBMC of HRPC patients; details: for reactivity of CTL (and antibody) to the peptide, in words: HRPC patients; for IFN post average/average no. of times of administration / CTL (IFN) Post Average: prostate cancer; for CTL (IFN) Post Average: patients given this peptide
Protocol: (§1) PBMC was separated from the peripheral blood obtained by blood collection at the start of administration and at the end of each course for lyophilization, and CTL activity was measured using all PBMC by a known method (Hida N, Maeda Y, Katagiri K, Takasu H, Harada M, Itoh K., A simple culture protocol to detect peptide-specific cytotoxic T lymphocyte precursors in circulation. Cancer Immunol Immunotherapy 2002; 51: 219-228 (incorporated herein by reference)) after the end of administration. First, PBMC was cultured in the presence of each administered peptide for 2 weeks, and the PBMC was co-cultured with HLA-A24 positive target cells presenting the administered peptide via HLA molecules. Then, CTL activity was measured by measuring IFN-γ secreted into the culture supernatant by the reaction of CTL in PBMC with the target cells. The co-culture was performed under 4 independent conditions for each peptide; 4 values were obtained for each peptide for each PBMC obtained by each blood collection; and the total of the 4 values was used as a value (pg/mL) of IFN-γ for analysis to be described later.
(§2) For HRPC patients, the average of IFN-γ values or FIU was calculated in the 1 mg administration group (level I), the 3 mg administration group (level II), and the 5 mg administration group (level III) to analyze the relationship between the dose and the immunological response.
(§3) For HRPC patients, the averages of IFN-γ values and FIU obtained from the plasma or PBMC obtained at the end of each course from before administration to the 6th course were calculated in the 1 mg administration group and the group of administration of 3 mg or more to analyze the relationship between the number of times of administration and the immunological response. The “Number of times of administration” in the table and the figure is the total number of times of administration at the end of each course, and the number of times of administration per course is 6.
Since the initial peptide reselection was performed at the end of the 1st course, the averages of measurements after the reselection (values measured at the end of the 2nd course and later) are shown in the table and the figure. The “Number of times of administration” in the table and the figure is the total number of times of administration at the end of each course, and the number of times of administration per course is 6.

[2] = tested on: antibody to a peptide in the peripheral blood of HRPC patients; assay: Antibody to peptide in plasma (FIU, Luminex) of HRPC patients; details: prostate cancer, patients given this peptide
Protocol: (§4) More specifically, a carrier was prepared in which each peptide was immobilized on the surface of micro beads (Luminex Corporation) after dissolving the powdered peptide in DMSO. Subsequently, plasma (heparin blood) obtained by blood collection from the patient was mixed with the immobilized carrier to react the antibody contained in the plasma with the peptide immobilized on the carrier. Then, the immobilized carrier was recovered after reaction; the antibody in the peripheral blood of the patient, bound to the peptide on the support was fluorescently labeled using a biotinylated anti-human antibody (Vector Corporation) and an avidinylated fluorescent dye (Streptavidin-PE, Invitrogen Corporation); and the fluorescence intensity (FIU) thereof was measured.
as §2, §3

[3] = tested on: antibody to a peptide in the peripheral blood of glioblastoma patients; assay: Antibody to peptide in plasma (FIU, Luminex) of glioblastoma patients; details: brain tumor, patients given this peptide
Protocol: as §4, with “An antibody to a peptide in the peripheral blood of patient was measured using a multiplex technology provided by Luminex Corporation by a method as described in Japanese Patent No. 3960614 (incorporated herein by reference) using each of the powdered peptides of SEQ ID NOS: 1 to 14. More” for “More”
(§5) Similarly, for glioblastoma patients, the average of IFN-γ values or FIU was calculated in the 1 mg administration group (level I) and the 3 mg administration group (level II) to analyze the relationship between the dose and the immunological response.
(§6) Similarly, for glioblastoma patients, the averages of IFN-γ values and FIU obtained from the plasma or PBMC obtained at the end of each course from before administration to the 2nd course were calculated in the 1 mg administration group (level I) and the group of administration of 3 mg or more (level II) to analyze the relationship between the number of times of administration and the immunological response. The “Number of times of administration” in the table and the figure is the total number of times of administration at the end of each course, and the number of times of administration per course is 6.

[4] = tested on: CTL in PBMC of glioblastoma patients, HLA-A24 positive target cells presenting the administered peptide; assay: Measurement of CTL activity (IFN-γ) in PBMC of glioblastoma patients; details: brain tumor; for CTL (IFN) Post Average: patients given this peptide
Protocol: as §1, §5, §6

Row | Sequence | reactivity of CTL (and antibody) to the peptide, in words [1] | IFN post average/average no. of times of administration [1] | CTL (IFN) Post Average [1] | Ab Post Average (FIU after peptide administration) [2] | Ab Post Average (FIU after peptide administration) [3] | IFN post average/average no. of times of administration [4] | CTL (IFN) Post Average [4]
1 | AYDFLYNYL [GP-113] | low values of CTL activation | 67 | 600 pg/mL | 207 FIU | 67 FIU | 357 | 5,139 pg/mL
2 | LYCESVHNF [GP-108] | – | 72 | 2,209 pg/mL | 19,039 FIU | – | – | –
3 | RYLTQETNKV [GP-111] | – | 207 | 5,576 pg/mL | 11,125 FIU | 241 FIU | 400 | 3,001 pg/mL
4 | LYAWEPSFL [GP-106] | – | 841 | 22,699 pg/mL | 20,080 FIU | 297 FIU | 174 | 3,134 pg/mL
5 | HYTNASDGL [GP-103] | did not increase the reactivity of antibody and CTL | 8 | 100 pg/mL | 22 FIU | – | – | –
6 | NYSVRYRPGL [GP-107] | lowly increased the CTL activity | 27 | 370 pg/mL | 2,888 FIU | 302 FIU | 8 | 151 pg/mL
7 | DYLRSVLEDF [GP-105] | – | 229 | 5,274 pg/mL | 13,096 FIU | 3,969 FIU | 180 | 2,706 pg/mL
8 | DYSARWNEI [GP-112] | low values of CTL activation | 76 | 459 pg/mL | 53 FIU | 1,338 FIU | 92 | 1,308 pg/mL
9 | VYDYNCHVDL [GP-114] | – | 547 | 4,592 pg/mL | 10,557 FIU | 297 FIU | 82 | 821 pg/mL
10 | HYRKWIKDTI [GP-109] | lowly increased the CTL activity | 22 | 494 pg/mL | 11,672 FIU | – | – | –
11 | DYVREHKDNI [GP-101] | lower in the CTL reactivity than other peptides | 7 | 129 pg/mL | 16,491 FIU | – | – | –
12 | TYSVSFDSL [GP-110] | increased the CTL value | 365 | 2,190 pg/mL | 310 FIU | – | – | –
13 | TFDYLRSVL [GP-104] | – | 144 | 3,629 pg/mL | 11,538 FIU | 920 FIU | 187 | 2,986 pg/mL
